In patent US20150266857A1, “NOVEL 3-INDOL SUBSTITUTED DERIVATIVES, PHARMACEUTICAL COMPOSITIONS AND METHODS FOR USE” (iTeos Therapeutics, priority 2014, published 2015):
Where a name gives a salt, the structure may show the parent alone.

Molecular target: T1, human glioblastoma A172 cells, naturally expressing hTDO2 (Homo sapiens, UniProt P48775)
T1 construct: human glioblastoma A172 cells, naturally expressing hTDO2; endogenous in cells; host or cells: human glioblastoma A172 cells (ATCC CRL-1620)
T1 sequence (P48775 whole entry): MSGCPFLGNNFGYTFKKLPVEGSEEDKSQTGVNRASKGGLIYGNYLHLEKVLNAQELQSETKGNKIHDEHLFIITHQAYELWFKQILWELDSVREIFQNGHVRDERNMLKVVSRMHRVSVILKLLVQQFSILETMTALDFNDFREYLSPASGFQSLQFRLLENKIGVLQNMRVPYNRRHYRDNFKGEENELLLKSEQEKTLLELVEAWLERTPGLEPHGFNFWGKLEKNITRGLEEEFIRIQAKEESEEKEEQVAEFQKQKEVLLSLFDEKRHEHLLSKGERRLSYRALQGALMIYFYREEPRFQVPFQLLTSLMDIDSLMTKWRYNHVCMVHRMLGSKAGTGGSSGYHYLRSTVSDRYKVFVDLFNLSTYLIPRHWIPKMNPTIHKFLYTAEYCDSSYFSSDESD
Assay: Cellular assay for TDO2 activity, A172 cells
Type: cell-based
Conditions: overnight incubation, kynurenine in supernatant
Experimental: The compounds of formula I inhibit the activity of human TDO2 in cells that constitutively express TDO2, such as A172 cells. A172 is a cell line derived from human brain glioblastoma cells. The cells are available from the American Type Culture Collection (ATCC®) as CRL-1620™
The assay (adapted from Pilotte L et al., Proc Natl Acad Sci USA, 2012, 109(7), 2497-502) was performed in 96-well flat bottom plates seeded with human glioblastoma A172 cells, naturally expressing hTDO2 (prepared as described in Tilman et al., Mol Cancer, 2007, 17(6), 80), at a concentration of 1.25×10^4 cells/well in a final volume of 200 μL. To determine TDO, the cells were incubated overnight at 37° C. at 5% CO2 in IMDM (Invitrogen) supplemented with 2% FBS and 2% penicillin/streptomycin in the presence of the compounds of the present invention, at different concentrations.
The plates were then centrifuged 5 min at 1000 rpm, and 100 μL of the supernatant were collected in a conical plate, 30 uL of TCA 30% were added and a further centrifugated at 3000×g for 10 minutes. 100 μL of the supernatant were collected in a flat bottomed plate and 100 μL of 2% (w/v) 4-(dimethylamino)-benzaldehyde in acetic acid and incubated for 5 min at room temperature. Kynurenine concentrations were determined by measuring the absorbance at 480 nm. A standard curve was made with pure kynurenine. The TDO activity was measured as described above using ten serial concentrations of the compounds of the present invention. Data were fitted using the Prism™ software (GraphPad Software, Inc.) using standard parameters.

Compound | IC50 [nM]
O=C1NC(=O)c2cc(-c3c[nH]c4cc(F)ccc34)ccc21 [Compound 132, 5-(6-fluoro-1H-indol-3-yl)isoindoline-1,3-dione] | 197
C[C@H]1CN(CCc2nc3ccc(-c4c[nH]c5cc(F)ccc45)cc3o2)C[C@H](C)N1 [Compound 144, (−)-2-(2-((3S,5S)-3,5-dimethylpiperazin-1-yl)ethyl)-6-(6-fluoro-1H-indol-3-yl)benzo[d]oxazole] | 460
CS(=O)(=O)N1CCN(CCc2nc3ccc(-c4c[nH]c5cc(F)ccc45)cc3o2)CC1 [Compound 120, 6-(6-fluoro-1H-indol-3-yl)-2-(2-(4-(methylsulfonyl)piperazin-1-yl)ethyl)benzo[d]oxazole] | 443
CN1CCC(Cc2nc3ccc(-c4c[nH]c5cc(F)ccc45)cc3o2)CC1 [Compound 125, 6-(6-fluoro-1H-indol-3-yl)-2-((1-methylpiperidin-4-yl)methyl)benzo[d]oxazole] | 148
CS(=O)(=O)N1CCC(Cc2nc3ccc(-c4c[nH]c5cc(F)ccc45)cc3o2)CC1 [Compound 119, 6-(6-fluoro-1H-indol-3-yl)-2-((1-(methylsulfonyl)piperidin-4-yl)methyl)benzo[d]oxazole] | 1020
Fc1ccc2c(-c3ccc4c(c3)CNC4)c[nH]c2c1 [Compound 133, 6-fluoro-3-(isoindolin-5-yl)-1H-indole] | 292
CS(=O)(=O)Nc1nc2ccc(-c3c[nH]c4cc(F)ccc34)cc2o1 [Compound 58, N-(6-(6-fluoro-1H-indol-3-yl)benzo[d]oxazol-2-yl)methanesulfonamide] | 3770
Clc1ccc2c(-c3ccc4ocnc4c3)c[nH]c2c1 [Compound 111, 5-(6-chloro-1H-indol-3-yl)benzo[d]oxazole] | 19000
c1ccc2c(-c3ccc4cn[nH]c4c3)c[nH]c2c1 [Compound 108, 6-(1H-indol-3-yl)-1H-indazole] | 599
CS(=O)(=O)NCc1nc2ccc(-c3c[nH]c4ccccc34)cc2o1 [Compound 114, N-((6-(1H-indol-3-yl)benzo[d]oxazol-2-yl)methyl)methanesulfonamide] | 478
Clc1ccc2[nH]cc(-c3ccc4ocnc4c3)c2c1 [Compound 121, 5-(5-chloro-1H-indol-3-yl)benzo[d]oxazole] | 1770
CC(=O)NCc1nc2cc(-c3c[nH]c4cc(F)ccc34)ccc2o1 [Compound 73, N-((5-(6-fluoro-1H-indol-3-yl)benzo[d]oxazol-2-yl)methyl)acetamide] | 363
Fc1ccc2c(-c3ccc4sccc4c3)c[nH]c2c1 [Compound 72, 3-(benzo[b]thiophen-5-yl)-6-fluoro-1H-indole] | 442
NC(=O)CCn1c(=O)oc2ccc(-c3c[nH]c4cc(F)ccc34)cc21 [Compound 71] | 3530
Fc1ccc2c(-c3ccc4occc4c3)c[nH]c2c1 [Compound 82, 3-(benzofuran-5-yl)-6-fluoro-1H-indole] | 602
NC(=O)Cn1cnc2cc(-c3c[nH]c4cc(F)ccc34)ccc21 [Compound 85, 2-(5-(6-fluoro-1H-indol-3-yl)-1H-benzo[d]imidazol-1-yl)acetamide] | 1330
NS(=O)(=O)NCc1nc2ccc(-c3c[nH]c4cc(F)ccc34)cc2o1 [Compound 117, Amino{[6-(6-fluoroindol-3-yl)benzoxazol-2-yl]methyl}sulfonamide] | 278
NC(=O)CCn1cnc2ccc(-c3c[nH]c4cc(F)ccc34)cc21 [Compound 93, 3-(6-(6-fluoro-1H-indol-3-yl)-1H-benzo[d]imidazol-1-yl)propanamide] | 1150
CS(=O)(=O)CCc1nc2cc(-c3c[nH]c4cc(F)ccc34)ccc2o1 [Compound 80, 5-(6-fluoro-1H-indol-3-yl)-2-(2-(methylsulfonyl)ethyl)benzo[d]oxazole] | 842
CN1CCC[C@H]1C(=O)NCc1nc2ccc(-c3c[nH]c4cc(F)ccc34)cc2o1 [Compound 115, (S)—N-((6-(6-fluoro-1H-indol-3-yl)benzo[d]oxazol-2-yl)methyl)-1-methylpyrrolidine-2-carboxamide] | 349
Fc1ccc2c(-c3ccc4ccsc4c3)c[nH]c2c1 [Compound 79, 3-(benzo[b]thiophen-6-yl)-6-fluoro-1H-indole] | 802
OC1CCN(CCc2nc3ccc(-c4c[nH]c5cc(F)ccc45)cc3o2)CC1 [Compound 140, 1-(2-(6-(6-fluoro-1H-indol-3-yl)benzo[d]oxazol-2-yl)ethyl)piperidin-4-ol] | 447
CS(=O)(=O)NC1CCN(CCS(=O)(=O)NCc2nc3ccc(-c4c[nH]c5cc(F)ccc45)cc3o2)CC1 [Compound 126, N-((6-(6-fluoro-1H-indol-3-yl)benzo[d]oxazol-2-yl)methyl)-2-(4-(methylsulfonamido)piperidin-1-yl)ethanesulfonamide] | 826
Fc1ccc2c(-c3ccc4oc(CN5CCNCC5)nc4c3)c[nH]c2c1 [Compound 61, 5-(6-fluoro-1H-indol-3-yl)-2-(piperazin-1-ylmethyl)benzo[d]oxazole] | 459
Fc1ccc2c(-c3ccc4nc(CC5CCNCC5)oc4c3)c[nH]c2c1 [Compound 113, 6-(6-fluoro-1H-indol-3-yl)-2-(piperidin-4-ylmethyl)benzo[d]oxazole] | 284

Second part, the compound after the results:

IC50 [nM] | Compound
383 | C[C@@H]1CN(CCc2nc3ccc(-c4c[nH]c5cc(F)ccc45)cc3o2)C[C@H](C)N1 [Compound 139, 2-(2-(cis-3,5-dimethylpiperazin-1-yl)ethyl)-6-(6-fluoro-1H-indol-3-yl)benzo[d]oxazole]
3280 | NC(=O)Cn1c(=O)oc2ccc(-c3c[nH]c4cc(F)ccc34)cc21 [Compound 69, 2-(5-(6-fluoro-1H-indol-3-yl)-2-oxobenzo[d]oxazol-3(2H)-yl)acetamide]
240 | CS(=O)(=O)CCNC(=O)CCn1ncc2cc(-c3c[nH]c4cc(F)ccc34)ccc21 [Compound 90, 3-(5-(6-fluoro-1H-indol-3-yl)-1H-indazol-1-yl)-N-(2-(methylsulfonyl)ethyl)propanamide]
30700 | Cc1nc2cc(CO)c(-c3c[nH]c4cc(F)ccc34)cc2o1 [Compound 137, (6-(6-fluoro-1H-indol-3-yl)-2-methylbenzo[d]oxazol-5-yl)methanol]
4640 | NC(=O)CCn1cnc2cc(-c3c[nH]c4cc(F)ccc34)ccc21 [Compound 94, 3-(5-(6-fluoro-1H-indol-3-yl)-1H-benzo[d]imidazol-1-yl)propanamide]
440 | NCc1nc2ccc(-c3c[nH]c4cc(F)ccc34)cc2o1 [Compound 76, (6-(6-fluoro-1H-indol-3-yl)benzo[d]oxazol-2-yl)methanamine hydrochloride]
26000 | O=C(O)C1CN(CCc2nc3ccc(-c4c[nH]c5cc(F)ccc45)cc3o2)CCN1 (stereo not drawn) [Compound 145, 4-(2-(6-(6-fluoro-1H-indol-3-yl)benzo[d]oxazol-2-yl)ethyl)piperazine-2-carboxylic acid]
2380 | NC(=O)Cn1c(=O)oc2cc(-c3c[nH]c4ccc(F)cc34)ccc21 [Compound 131, 2-(6-(5-fluoro-1H-indol-3-yl)-2-oxobenzo[d]oxazol-3(2H)-yl)acetamide]
480 | C[C@@H]1CN(CCc2nc3ccc(-c4c[nH]c5cc(F)ccc45)cc3o2)C[C@@H](C)N1 [Compound 142, (+)-2-(2-((3R,5R)-3,5-dimethylpiperazin-1-yl)ethyl)-6-(6-fluoro-1H-indol-3-yl)benzo[d]oxazole]
520 | Fc1ccc2c(-c3ccc4ccoc4c3)c[nH]c2c1 [Compound 146, 3-(benzofuran-6-yl)-6-fluoro-1H-indole]
610 | Fc1ccc2c(-c3ccc4nc(CCN5CC6(CNC6)C5)oc4c3)c[nH]c2c1 [Compound 143, 2-(2-(2,6-diazaspiro[3.3]heptan-2-yl)ethyl)-6-(6-fluoro-1H-indol-3-yl)benzo[d]oxazole]
205 | O=C(CCn1ncc2cc(-c3c[nH]c4cc(F)ccc34)ccc21)NCCO [Compound 89, 3-(5-(6-fluoro-1H-indol-3-yl)-1H-indazol-1-yl)-N-(2-hydroxyethyl)propanamide]
351 | COCCS(=O)(=O)NCc1nc2ccc(-c3c[nH]c4cc(F)ccc34)cc2o1 [Compound 99, N-((6-(6-fluoro-1H-indol-3-yl)benzo[d]oxazol-2-yl)methyl)-2-methoxyethanesulfonamide]
1090 | Nc1nc2ccc(-c3c[nH]c4cc(F)ccc34)cc2[nH]1 [Compound 41, 6-(6-fluoro-1H-indol-3-yl)-1H-benzo[d]imidazol-2-amine]
2520 | NC(=O)CCn1c(=O)oc2cc(-c3c[nH]c4cc(F)ccc34)ccc21 [Compound 67, 3-(6-(6-fluoro-1H-indol-3-yl)-2-oxobenzo[d]oxazol-3(2H)-yl)propanamide]
771 | O=S1(=O)NCc2ccc(-c3c[nH]c4cc(F)ccc34)cc21 [Compound 134]
1530 | c1ccc2c(-c3ccc4ocnc4c3)c[nH]c2c1 [Compound 118, 5-(1H-indol-3-yl)benzo[d]oxazole]
